Values belong to the compound of their own block, whether it stands above or below them. The source made the active and inactive calls.
Experiments:
BJ = experiment: growth inhibition of engineered Ras-driven BJ cells – cell-based, alamar blue fluorescence, cherrypicked samples, dose response (AID 2631); type: functional; conditions: Homo sapiens;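 also: confirmatory dose-response assay in RAS-dependent BJ fibroblasts engineered with TERT, LT and ST, with cytotoxicity read by fluorescence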
Insulin-degrading enzyme [1] = molecular target: T1, Insulin-degrading enzyme (Homo sapiens, UniProt P14735); experiment: recombinant IDE activation, cell-free – biochemical, fluorescence polarization, counter-screen for IDE activator project, dose response (AID 588681)
T1 sequence (P14735 whole entry): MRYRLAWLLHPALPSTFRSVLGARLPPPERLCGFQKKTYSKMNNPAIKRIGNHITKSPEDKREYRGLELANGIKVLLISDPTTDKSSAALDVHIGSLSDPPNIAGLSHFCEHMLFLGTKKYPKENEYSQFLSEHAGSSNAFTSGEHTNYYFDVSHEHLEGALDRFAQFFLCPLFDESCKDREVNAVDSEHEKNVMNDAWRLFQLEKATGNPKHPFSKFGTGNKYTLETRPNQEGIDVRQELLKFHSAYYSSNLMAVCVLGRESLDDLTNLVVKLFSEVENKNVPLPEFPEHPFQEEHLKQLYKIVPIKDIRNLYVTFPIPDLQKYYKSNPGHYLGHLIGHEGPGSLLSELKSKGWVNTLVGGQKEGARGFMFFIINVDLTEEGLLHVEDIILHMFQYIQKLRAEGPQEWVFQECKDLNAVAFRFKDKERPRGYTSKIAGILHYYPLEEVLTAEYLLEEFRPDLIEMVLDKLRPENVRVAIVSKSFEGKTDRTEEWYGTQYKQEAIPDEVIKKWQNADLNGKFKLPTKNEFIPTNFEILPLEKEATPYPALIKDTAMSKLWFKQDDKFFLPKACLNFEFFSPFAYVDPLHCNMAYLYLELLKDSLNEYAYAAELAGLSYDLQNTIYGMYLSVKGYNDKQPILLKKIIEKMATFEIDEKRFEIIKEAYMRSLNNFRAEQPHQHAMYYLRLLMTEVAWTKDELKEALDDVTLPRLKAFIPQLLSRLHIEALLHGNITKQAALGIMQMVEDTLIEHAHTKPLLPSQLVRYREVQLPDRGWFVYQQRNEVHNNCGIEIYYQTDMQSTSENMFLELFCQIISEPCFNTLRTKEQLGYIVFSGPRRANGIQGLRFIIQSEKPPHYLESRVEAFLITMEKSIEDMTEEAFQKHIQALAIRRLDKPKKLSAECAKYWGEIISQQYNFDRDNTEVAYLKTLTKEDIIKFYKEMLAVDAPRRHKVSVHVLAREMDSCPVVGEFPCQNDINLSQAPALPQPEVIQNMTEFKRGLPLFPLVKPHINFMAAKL

Insulin-degrading enzyme [2] = molecular target: T1, Insulin-degrading enzyme; experiment: cellular IDE activation of Abeta substrate cleavage – fluorescence polarization, HEK cells, dose response (AID 588439); type: functional, cell-based
[3] = molecular target: T2, Mitochondrial peptide methionine sulfoxide reductase (Bos taurus, UniProt P54149); type: functional;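 also: absorbance read-out, biochemical high-throughput dose-response screen for MsrA inhibitors, confirmatory; recombinant bovine MsrA coupled to E. coli TrxB with NADPH and selenocystamine; potency is for inhibitors of MsrA activity on DMSO substrate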
T2 sequence (P54149 whole entry): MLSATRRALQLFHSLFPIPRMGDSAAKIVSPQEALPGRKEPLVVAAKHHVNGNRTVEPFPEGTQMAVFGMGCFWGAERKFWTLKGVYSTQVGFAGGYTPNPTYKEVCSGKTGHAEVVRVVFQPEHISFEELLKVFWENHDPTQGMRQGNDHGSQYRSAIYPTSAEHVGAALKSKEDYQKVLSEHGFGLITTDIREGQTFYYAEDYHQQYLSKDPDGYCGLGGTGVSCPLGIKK

[4] = molecular target: Tyrosine-protein kinase JAK2 (Homo sapiens, UniProt O60674); type: functional;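 also: JAK2 tested as one member of a kinase panel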
[5] = molecular target: Phosphorylase b kinase gamma catalytic chain, liver/testis isoform (Homo sapiens, UniProt P15735); type: functional;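 also: PHKG2 measured as one member of a kinome-wide kinase panel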
Phosphorylase b kinase gamma catalytic chain, liver/testis isoform, sequence (P15735 whole entry, canonical isoform): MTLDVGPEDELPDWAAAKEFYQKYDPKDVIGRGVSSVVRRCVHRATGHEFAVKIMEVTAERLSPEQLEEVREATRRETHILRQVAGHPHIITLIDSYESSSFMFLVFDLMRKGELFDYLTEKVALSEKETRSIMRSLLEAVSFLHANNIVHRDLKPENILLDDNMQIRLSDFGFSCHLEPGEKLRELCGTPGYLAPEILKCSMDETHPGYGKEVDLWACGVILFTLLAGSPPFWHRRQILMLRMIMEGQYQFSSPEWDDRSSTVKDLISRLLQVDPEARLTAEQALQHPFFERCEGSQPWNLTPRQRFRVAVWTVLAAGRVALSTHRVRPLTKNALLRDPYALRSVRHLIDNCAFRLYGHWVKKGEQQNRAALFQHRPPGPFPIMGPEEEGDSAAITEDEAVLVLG

[6] = molecular target: Tyrosine-protein kinase Lck (Homo sapiens, UniProt P06239); type: functional;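 also: lck was assayed as one member of a kinase panel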
Tyrosine-protein kinase Lck, sequence (P06239 whole entry): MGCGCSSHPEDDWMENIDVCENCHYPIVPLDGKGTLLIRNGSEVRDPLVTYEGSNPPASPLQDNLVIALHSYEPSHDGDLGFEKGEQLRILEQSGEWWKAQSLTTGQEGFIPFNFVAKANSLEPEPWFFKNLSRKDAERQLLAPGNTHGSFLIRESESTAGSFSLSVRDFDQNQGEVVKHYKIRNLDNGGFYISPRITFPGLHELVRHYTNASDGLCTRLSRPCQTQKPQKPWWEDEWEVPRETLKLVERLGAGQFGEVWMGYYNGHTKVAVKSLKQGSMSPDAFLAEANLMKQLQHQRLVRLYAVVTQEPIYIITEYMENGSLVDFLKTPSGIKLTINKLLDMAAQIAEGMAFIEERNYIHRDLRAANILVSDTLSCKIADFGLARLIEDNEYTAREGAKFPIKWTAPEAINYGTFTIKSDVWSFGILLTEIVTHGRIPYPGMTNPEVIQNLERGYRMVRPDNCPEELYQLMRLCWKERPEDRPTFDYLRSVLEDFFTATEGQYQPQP

Aurora kinase A = molecular target: T3, Aurora kinase A (Homo sapiens, UniProt O14965); type: functional;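 also: value from the Navigating the Kinome kinase panel profiling, panel entry STK6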
T3 sequence (O14965 whole entry): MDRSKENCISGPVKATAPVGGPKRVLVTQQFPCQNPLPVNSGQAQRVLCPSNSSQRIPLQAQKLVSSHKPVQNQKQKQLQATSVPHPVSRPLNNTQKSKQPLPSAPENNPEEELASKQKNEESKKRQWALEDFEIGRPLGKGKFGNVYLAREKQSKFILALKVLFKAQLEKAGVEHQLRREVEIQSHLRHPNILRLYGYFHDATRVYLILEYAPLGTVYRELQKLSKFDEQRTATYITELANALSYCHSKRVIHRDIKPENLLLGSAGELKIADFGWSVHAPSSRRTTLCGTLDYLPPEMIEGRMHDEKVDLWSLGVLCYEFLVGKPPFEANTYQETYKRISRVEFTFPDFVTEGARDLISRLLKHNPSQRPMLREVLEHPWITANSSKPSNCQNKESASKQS

[7] = molecular target: Casein kinase I isoform alpha (Homo sapiens, UniProt P48729); type: functional
[8] = molecular target: Serine/threonine-protein kinase TAO1 (Homo sapiens, UniProt Q7L7X3); type: functional
Serine/threonine-protein kinase TAO1, sequence (Q7L7X3 whole entry): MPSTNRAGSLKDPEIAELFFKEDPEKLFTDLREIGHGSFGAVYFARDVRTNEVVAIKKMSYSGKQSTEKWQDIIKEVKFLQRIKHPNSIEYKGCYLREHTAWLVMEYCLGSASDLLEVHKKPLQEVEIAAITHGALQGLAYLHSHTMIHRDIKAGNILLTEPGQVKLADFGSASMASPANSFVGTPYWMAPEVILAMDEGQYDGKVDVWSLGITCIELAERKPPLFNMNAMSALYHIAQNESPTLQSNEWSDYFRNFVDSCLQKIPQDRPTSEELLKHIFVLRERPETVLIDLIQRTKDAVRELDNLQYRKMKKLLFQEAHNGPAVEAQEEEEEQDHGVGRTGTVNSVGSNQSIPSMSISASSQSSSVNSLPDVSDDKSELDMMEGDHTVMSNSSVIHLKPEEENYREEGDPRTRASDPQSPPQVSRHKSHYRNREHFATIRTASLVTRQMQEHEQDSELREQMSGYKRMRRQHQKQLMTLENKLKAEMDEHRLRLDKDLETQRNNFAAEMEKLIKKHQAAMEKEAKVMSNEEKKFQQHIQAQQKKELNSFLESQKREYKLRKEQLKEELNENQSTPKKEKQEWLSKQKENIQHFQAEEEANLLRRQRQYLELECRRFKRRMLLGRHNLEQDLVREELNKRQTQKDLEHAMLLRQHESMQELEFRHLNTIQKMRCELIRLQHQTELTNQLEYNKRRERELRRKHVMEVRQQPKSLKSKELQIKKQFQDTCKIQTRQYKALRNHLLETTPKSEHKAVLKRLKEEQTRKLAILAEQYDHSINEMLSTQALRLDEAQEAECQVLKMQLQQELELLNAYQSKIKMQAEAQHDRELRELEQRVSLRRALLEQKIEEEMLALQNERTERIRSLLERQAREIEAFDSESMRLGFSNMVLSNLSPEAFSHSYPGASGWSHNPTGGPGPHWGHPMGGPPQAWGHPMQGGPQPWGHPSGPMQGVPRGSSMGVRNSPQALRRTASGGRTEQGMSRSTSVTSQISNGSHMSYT

[9] = molecular target: Tyrosine-protein kinase Blk (Homo sapiens, UniProt P51451); type: functional;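 also: obtained as one member of a kinome-wide kinase assay panel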
Tyrosine-protein kinase Blk, sequence (P51451 whole entry): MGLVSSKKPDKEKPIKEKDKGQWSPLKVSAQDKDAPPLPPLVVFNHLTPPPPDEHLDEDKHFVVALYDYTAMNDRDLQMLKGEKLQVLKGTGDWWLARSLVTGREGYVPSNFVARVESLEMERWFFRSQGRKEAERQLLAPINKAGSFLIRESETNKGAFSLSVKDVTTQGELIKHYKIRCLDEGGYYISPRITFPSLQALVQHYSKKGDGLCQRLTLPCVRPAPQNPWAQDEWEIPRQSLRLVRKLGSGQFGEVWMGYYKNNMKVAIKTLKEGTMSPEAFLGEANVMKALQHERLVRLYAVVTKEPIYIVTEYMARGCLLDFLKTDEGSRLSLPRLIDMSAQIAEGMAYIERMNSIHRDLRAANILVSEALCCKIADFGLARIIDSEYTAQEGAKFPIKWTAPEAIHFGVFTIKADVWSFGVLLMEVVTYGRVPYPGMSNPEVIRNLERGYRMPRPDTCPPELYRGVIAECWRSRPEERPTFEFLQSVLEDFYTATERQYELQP

[10] = molecular target: Vascular endothelial growth factor receptor 2 (Homo sapiens, UniProt P35968); type: functional
Vascular endothelial growth factor receptor 2, sequence (P35968 whole entry): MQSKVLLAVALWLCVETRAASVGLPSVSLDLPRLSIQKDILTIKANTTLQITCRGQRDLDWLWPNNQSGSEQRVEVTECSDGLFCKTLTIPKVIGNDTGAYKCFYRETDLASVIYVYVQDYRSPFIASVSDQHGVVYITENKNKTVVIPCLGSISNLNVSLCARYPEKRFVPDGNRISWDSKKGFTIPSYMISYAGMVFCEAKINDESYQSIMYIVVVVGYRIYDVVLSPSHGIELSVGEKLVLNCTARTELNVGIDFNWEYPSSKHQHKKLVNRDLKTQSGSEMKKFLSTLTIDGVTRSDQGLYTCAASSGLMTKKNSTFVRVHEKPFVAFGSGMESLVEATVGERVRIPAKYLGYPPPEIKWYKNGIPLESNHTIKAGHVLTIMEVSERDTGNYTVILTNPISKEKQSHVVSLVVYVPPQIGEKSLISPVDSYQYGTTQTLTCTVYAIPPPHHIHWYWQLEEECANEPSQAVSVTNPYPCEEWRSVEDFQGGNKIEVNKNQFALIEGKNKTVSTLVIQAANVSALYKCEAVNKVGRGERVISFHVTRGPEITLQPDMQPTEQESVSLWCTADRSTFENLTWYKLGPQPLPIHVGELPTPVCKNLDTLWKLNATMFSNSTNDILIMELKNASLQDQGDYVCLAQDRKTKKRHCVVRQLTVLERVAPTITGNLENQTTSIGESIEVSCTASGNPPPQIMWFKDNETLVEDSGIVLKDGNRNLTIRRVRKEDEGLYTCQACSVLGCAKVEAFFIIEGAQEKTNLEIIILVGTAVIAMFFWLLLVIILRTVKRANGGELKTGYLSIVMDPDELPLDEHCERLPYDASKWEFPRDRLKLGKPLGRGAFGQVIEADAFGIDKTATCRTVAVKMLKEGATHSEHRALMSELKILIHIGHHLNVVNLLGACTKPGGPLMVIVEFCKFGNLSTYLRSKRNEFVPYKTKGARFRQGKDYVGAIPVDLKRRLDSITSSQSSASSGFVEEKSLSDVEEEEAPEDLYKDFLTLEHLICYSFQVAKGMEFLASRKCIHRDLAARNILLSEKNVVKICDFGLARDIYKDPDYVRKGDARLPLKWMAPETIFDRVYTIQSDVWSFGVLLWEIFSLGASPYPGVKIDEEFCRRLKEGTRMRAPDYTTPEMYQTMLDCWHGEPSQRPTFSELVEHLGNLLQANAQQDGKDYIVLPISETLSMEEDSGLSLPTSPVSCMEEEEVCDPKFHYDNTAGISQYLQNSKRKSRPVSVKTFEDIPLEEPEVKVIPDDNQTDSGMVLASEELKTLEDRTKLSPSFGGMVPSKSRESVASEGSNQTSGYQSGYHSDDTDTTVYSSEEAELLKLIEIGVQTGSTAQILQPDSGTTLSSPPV

[11] = molecular target: Receptor tyrosine-protein kinase erbB-4 (Homo sapiens, UniProt Q15303); type: functional;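 also: ERBB4 member of a kinome-wide kinase profiling panel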
Receptor tyrosine-protein kinase erbB-4, sequence (Q15303 whole entry): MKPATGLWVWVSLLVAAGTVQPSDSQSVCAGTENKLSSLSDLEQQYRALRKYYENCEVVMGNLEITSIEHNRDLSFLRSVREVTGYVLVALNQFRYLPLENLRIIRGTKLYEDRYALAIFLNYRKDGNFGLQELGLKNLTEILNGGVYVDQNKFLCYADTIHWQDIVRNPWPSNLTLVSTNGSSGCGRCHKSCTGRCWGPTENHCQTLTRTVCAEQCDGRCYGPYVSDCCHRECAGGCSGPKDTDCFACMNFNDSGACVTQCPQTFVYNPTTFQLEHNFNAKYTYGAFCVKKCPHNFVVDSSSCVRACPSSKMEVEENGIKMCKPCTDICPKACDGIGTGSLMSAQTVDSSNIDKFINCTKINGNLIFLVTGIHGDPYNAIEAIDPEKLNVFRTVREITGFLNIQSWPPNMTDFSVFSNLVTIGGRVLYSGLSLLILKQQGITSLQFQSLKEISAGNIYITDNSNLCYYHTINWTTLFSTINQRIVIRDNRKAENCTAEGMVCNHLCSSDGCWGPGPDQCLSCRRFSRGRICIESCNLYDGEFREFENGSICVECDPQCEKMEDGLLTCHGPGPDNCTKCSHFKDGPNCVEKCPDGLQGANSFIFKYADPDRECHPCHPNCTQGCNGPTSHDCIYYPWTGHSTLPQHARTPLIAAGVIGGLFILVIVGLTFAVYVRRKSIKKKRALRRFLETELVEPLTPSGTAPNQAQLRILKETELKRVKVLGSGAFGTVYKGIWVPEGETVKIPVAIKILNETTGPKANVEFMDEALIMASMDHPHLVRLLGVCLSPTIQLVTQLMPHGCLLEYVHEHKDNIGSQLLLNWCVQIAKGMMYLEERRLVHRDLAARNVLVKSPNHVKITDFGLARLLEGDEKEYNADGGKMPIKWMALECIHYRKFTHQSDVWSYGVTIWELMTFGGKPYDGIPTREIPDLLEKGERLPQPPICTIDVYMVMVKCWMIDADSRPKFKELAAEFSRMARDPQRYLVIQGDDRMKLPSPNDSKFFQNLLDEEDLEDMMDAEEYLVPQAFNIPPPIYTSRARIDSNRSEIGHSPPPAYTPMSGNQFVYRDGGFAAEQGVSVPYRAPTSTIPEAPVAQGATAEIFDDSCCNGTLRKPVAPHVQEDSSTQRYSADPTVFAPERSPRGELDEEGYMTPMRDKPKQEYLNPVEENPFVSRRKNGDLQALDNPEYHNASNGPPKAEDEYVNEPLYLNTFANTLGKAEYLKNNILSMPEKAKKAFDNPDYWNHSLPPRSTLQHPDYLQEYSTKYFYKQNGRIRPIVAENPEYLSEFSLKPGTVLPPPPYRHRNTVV

[12] = molecular target: cAMP-dependent protein kinase catalytic subunit alpha (Homo sapiens, UniProt P17612); type: functional

SMILES: O=[N+]([O-])c1c(Nc2ccccn2)cc(Cl)c2nonc12
EC50 (BJ): 2.43 µM (active)

SMILES: CC[C@@H](C)[C@H](CNC)NC[C@@H](Cc1cccc2ccccc12)NCCc1cccc(C(F)(F)F)c1
EC50 (Insulin-degrading enzyme [1]): > 54.7 µM (inactive)
EC50 (Insulin-degrading enzyme [2]): 6.41 µM (active)

SMILES: Cc1ccc(S(=O)(=O)/N=C2\C=C(Nc3cccc(C(=O)O)c3)C(=O)c3ccccc32)cc1
IC50 [3]: 42.4 µM (inactive)

Ki [4]: > 1.58 µM (inactive)
Ki [5]: > 5.01 µM (inactive)
Ki [6]: > 2.51 µM (inactive)
Ki (Aurora kinase A): > 3.98 µM (inactive)
Ki [7]: 1.26 µM (active)
Ki [8]: 7.94 µM (active)
Ki [9]: > 1.58 µM (inactive)
Ki [10]: > 7.94 µM (inactive)
Ki [11]: > 3.98 µM (inactive)
Ki [12]: > 7.94 µM (inactive)
SMILES: CC(C)(CO)CNc1nccc(-c2c(-c3ccc(F)cc3)nc3c(CC4CC4)nccn23)n1
